Source: patent US6410480B1, “Herbicidally active 3-hydroxy-4-aryl-5-oxopyrazoline derivatives” (Syngenta Crop Protection, Inc., priority 1998, dated 2002)

Assays:
Assay type in all cases: in vivo
all of the weeds tested = experiment: Experimental comparison with the prior art: herbicidal action, pre- and post-emergence, overall statement; conditions: 500 g of active substance/ha, against all of the weeds tested
Description: The following compounds were examined for their herbicidal activity: Monocotyledonous and dicotyledonous weeds are sown in standard soil in plastic pots. Immediately after sowing, the test substances are applied (500 l of water/ha) as an aqueous suspension (prepared using a 25% wettable powder (Example F3, b)) or as an emulsion (prepared using a 25% emulsion concentrate (Example F1, c)). The application rate is 500 g of active substance/ha. The test plants are subsequently grown under optimum conditions in a greenhouse. 3 weeks after the application, evaluation is carried out using a nine-level scale of ratings (1=complete damage, 9=no effect). Ratings of 1 to 4 (in particular 1 to 3) mean a good to very good herbicidal action. Test plants: Alopecurus (Alo), Avena (Ave), Lolium (Lot), Setaria (Set), Panicum (Pan), Sorghum (Sor), Digitaria (Dig), Echinocloa (Ech) and Brachiaria (Bra). Monocotyledonous and dicotyledonous weeds are grown in standard soil in plastic pots under greenhouse conditions. The test substances are applied at the 3- to 6-leaf stage of the test plants. The test substances are applied (500 l of water/ha) as an aqueous suspension (prepared using a 25% wettable powder (Example F3, b)) or as an emulsion (prepared using a 25% emulsion concentrate (Example F1, c)) at an application rate of 500 g of active substance/ha. […]

Setaria [1] = experiment: Example B4: post-emergence herbicidal action of compounds of the invention; parameters: key: 1=complete damage; 9=no effect; Ratings of 1 to 4 (in particular 1 to 3) mean a good to very good herbicidal action; conditions: 3- to 6-leaf stage, 250 g of active substance/ha, 3 weeks after application, scale 1-9
Protocol: (§1) Monocotyledonous and dicotyledonous weeds are grown in standard soil in plastic pots under greenhouse conditions. The test substances are applied at the 3- to 6-leaf stage of the test plants. The test substances are applied (500 l of water/ha) as an aqueous suspension (prepared using a 25% wettable powder (Example F3, b)) or as an emulsion (prepared using a 25% emulsion concentrate (Example F1, c)) at an application rate of 250 g of active substance/ha. 3 weeks after the application, evaluation is carried out using a nine-level scale of ratings (1=complete damage, 9=no effect). Ratings of 1 to 4 (in particular 1 to 3) mean a good to very good herbicidal action. Test plants: Avena (Ave), Lolium (Lol), Setaria (Set).

Avena [2] = experiment: as above; parameters: key: 1=complete damage; 9=no effect; Ratings of 1 to 4 (in particular 1 to 3) mean a good to very good herbicidal action; conditions: 3- to 6-leaf stage, 250 g of active substance/ha, 3 weeks after application, scale 1-9
Protocol: as §1

Lolium [3] = experiment: as above; parameters: key: 1=complete damage; 9=no effect; Ratings of 1 to 4 (in particular 1 to 3) mean a good to very good herbicidal action; conditions: 3- to 6-leaf stage, 250 g of active substance/ha, 3 weeks after application, scale 1-9
Protocol: as §1

Avena [4] = experiment: Example B1: pre-emergence herbicidal action, comparison with prior art; conditions: 500 g of ai/ha, 3 weeks after application, scale 1-9
Description: (§2) Monocotyledonous and dicotyledonous weeds are sown in standard soil in plastic pots. Immediately after sowing, the test substances are applied (500 l of water/ha) as an aqueous suspension (prepared using a 25% wettable powder (Example F3, b)) or as an emulsion (prepared using a 25% emulsion concentrate (Example F1, c)). The application rate is 500 g of active substance/ha. The test plants are subsequently grown under optimum conditions in a greenhouse. 3 weeks after the application, evaluation is carried out using a nine-level scale of ratings (1=complete damage, 9=no effect). Ratings of 1 to 4 (in particular 1 to 3) mean a good to very good herbicidal action. Test plants: Alopecurus (Alo), Avena (Ave), Lolium (Lot), Setaria (Set), Panicum (Pan), Sorghum (Sor), Digitaria (Dig), Echinocloa (Ech) and Brachiaria (Bra).

Brachiaria [5] = experiment: as above; conditions: 500 g of ai/ha, 3 weeks after application, scale 1-9
Description: as §2

Digitaria [6] = experiment: as above; conditions: 500 g of ai/ha, 3 weeks after application, scale 1-9
Description: as §2

Alopecurus [7] = experiment: as above; conditions: 500 g of ai/ha, 3 weeks after application, scale 1-9
Description: as §2

Alopecurus [8] = experiment: Example B2: post-emergence herbicidal action, comparison with prior art; conditions: 3- to 6-leaf stage, 500 g of ai/ha, 3 weeks after application, scale 1-9
Protocol: as §1, with “500” for “250”, “plants: Alopecurus (Alo),” for “plants:”, “(Set), Panicum (Pan), Sorghum (Sor), Digitaria (Dig), Echinocloa (Ech) and Brachiaria (Bra).” for “(Set).”

Panicum [9] = experiment: Example B1: pre-emergence herbicidal action, comparison with prior art; conditions: 500 g of ai/ha, 3 weeks after application, scale 1-9
Description: as §2

Setaria [10] = experiment: as above; conditions: 500 g of ai/ha, 3 weeks after application, scale 1-9
Description: as §2

Echinocloa [11] = experiment: as above; conditions: 500 g of ai/ha, 3 weeks after application, scale 1-9
Description: as §2

Lolium [12] = experiment: as above; conditions: 500 g of ai/ha, 3 weeks after application, scale 1-9
Description: as §2

Sorghum [13] = experiment: as above; conditions: 500 g of ai/ha, 3 weeks after application, scale 1-9
Description: as §2

Panicum [14] = experiment: Example B2: post-emergence herbicidal action, comparison with prior art; parameters: key: 1=complete damage; 9=no effect; Ratings of 1 to 4 (in particular 1 to 3) mean a good to very good herbicidal action; conditions: 3- to 6-leaf stage, 500 g of ai/ha, 3 weeks after application, scale 1-9
Protocol: as §1, with “500” for “250”, “plants: Alopecurus (Alo),” for “plants:”, “(Set), Panicum (Pan), Sorghum (Sor), Digitaria (Dig), Echinocloa (Ech) and Brachiaria (Bra).” for “(Set).”

Setaria [15] = experiment: as above; parameters: key: 1=complete damage; 9=no effect; Ratings of 1 to 4 (in particular 1 to 3) mean a good to very good herbicidal action; conditions: 3- to 6-leaf stage, 500 g of ai/ha, 3 weeks after application, scale 1-9
Protocol: as §1, with “500” for “250”, “plants: Alopecurus (Alo),” for “plants:”, “(Set), Panicum (Pan), Sorghum (Sor), Digitaria (Dig), Echinocloa (Ech) and Brachiaria (Bra).” for “(Set).”

Avena [16] = experiment: as above; parameters: key: 1=complete damage; 9=no effect; Ratings of 1 to 4 (in particular 1 to 3) mean a good to very good herbicidal action; conditions: 3- to 6-leaf stage, 500 g of ai/ha, 3 weeks after application, scale 1-9
Protocol: as §1, with “500” for “250”, “plants: Alopecurus (Alo),” for “plants:”, “(Set), Panicum (Pan), Sorghum (Sor), Digitaria (Dig), Echinocloa (Ech) and Brachiaria (Bra).” for “(Set).”

Brachiaria [17] = experiment: as above; parameters: key: 1=complete damage; 9=no effect; Ratings of 1 to 4 (in particular 1 to 3) mean a good to very good herbicidal action; conditions: 3- to 6-leaf stage, 500 g of ai/ha, 3 weeks after application, scale 1-9
Protocol: as §1, with “500” for “250”, “plants: Alopecurus (Alo),” for “plants:”, “(Set), Panicum (Pan), Sorghum (Sor), Digitaria (Dig), Echinocloa (Ech) and Brachiaria (Bra).” for “(Set).”

Digitaria [18] = experiment: as above; parameters: key: 1=complete damage; 9=no effect; Ratings of 1 to 4 (in particular 1 to 3) mean a good to very good herbicidal action; conditions: 3- to 6-leaf stage, 500 g of ai/ha, 3 weeks after application, scale 1-9
Protocol: as §1, with “500” for “250”, “plants: Alopecurus (Alo),” for “plants:”, “(Set), Panicum (Pan), Sorghum (Sor), Digitaria (Dig), Echinocloa (Ech) and Brachiaria (Bra).” for “(Set).”

Echinocloa [19] = experiment: as above; parameters: key: 1=complete damage; 9=no effect; Ratings of 1 to 4 (in particular 1 to 3) mean a good to very good herbicidal action; conditions: 3- to 6-leaf stage, 500 g of ai/ha, 3 weeks after application, scale 1-9
Protocol: as §1, with “500” for “250”, “plants: Alopecurus (Alo),” for “plants:”, “(Set), Panicum (Pan), Sorghum (Sor), Digitaria (Dig), Echinocloa (Ech) and Brachiaria (Bra).” for “(Set).”

Lolium [20] = experiment: as above; parameters: key: 1=complete damage; 9=no effect; Ratings of 1 to 4 (in particular 1 to 3) mean a good to very good herbicidal action; conditions: 3- to 6-leaf stage, 500 g of ai/ha, 3 weeks after application, scale 1-9
Protocol: as §1, with “500” for “250”, “plants: Alopecurus (Alo),” for “plants:”, “(Set), Panicum (Pan), Sorghum (Sor), Digitaria (Dig), Echinocloa (Ech) and Brachiaria (Bra).” for “(Set).”

Sorghum [21] = experiment: as above; parameters: key: 1=complete damage; 9=no effect; Ratings of 1 to 4 (in particular 1 to 3) mean a good to very good herbicidal action; conditions: 3- to 6-leaf stage, 500 g of ai/ha, 3 weeks after application, scale 1-9
Protocol: as §1, with “500” for “250”, “plants: Alopecurus (Alo),” for “plants:”, “(Set), Panicum (Pan), Sorghum (Sor), Digitaria (Dig), Echinocloa (Ech) and Brachiaria (Bra).” for “(Set).”

Setaria [22] = experiment: Example B3: pre-emergence herbicidal action of compounds of the invention; parameters: key: 1=complete damage; 9=no effect; Ratings of 1 to 4 (in particular 1 to 3) mean a good to very good herbicidal action; conditions: 500 g of active substance/ha, 3 weeks after application, scale 1-9
Protocol: as §1, with “pots. Directly after sowing,” for “pots under greenhouse conditions. The test substances are applied at”, “the” for “the 3- to 6-leaf stage of the test plants. The”, “c)). The” for “c)) at an”, “is 500” for “of 250”, “substance/ha. The test plants are subsequently grown under optimum conditions in a greenhouse” for “substance/ha.”

Avena [23] = experiment: as above; parameters: key: 1=complete damage; 9=no effect; Ratings of 1 to 4 (in particular 1 to 3) mean a good to very good herbicidal action; conditions: 500 g of active substance/ha, 3 weeks after application, scale 1-9
Protocol: as §1, with “pots. Directly after sowing,” for “pots under greenhouse conditions. The test substances are applied at”, “the” for “the 3- to 6-leaf stage of the test plants. The”, “c)). The” for “c)) at an”, “is 500” for “of 250”, “substance/ha. The test plants are subsequently grown under optimum conditions in a greenhouse” for “substance/ha.”

Lolium [24] = experiment: as above; parameters: key: 1=complete damage; 9=no effect; Ratings of 1 to 4 (in particular 1 to 3) mean a good to very good herbicidal action; conditions: 500 g of active substance/ha, 3 weeks after application, scale 1-9
Protocol: as §1, with “pots. Directly after sowing,” for “pots under greenhouse conditions. The test substances are applied at”, “the” for “the 3- to 6-leaf stage of the test plants. The”, “c)). The” for “c)) at an”, “is 500” for “of 250”, “substance/ha. The test plants are subsequently grown under optimum conditions in a greenhouse” for “substance/ha.”

SMILES: Cc1cc(C)c(C2C(=O)N3CCOCCN3C2=O)c(C)c1 [Compound No. 1.01]
- herbicidal action compared with compound A of the prior art (all of the weeds tested): considerably better herbicidal action

SMILES: CCc1cc(C)cc(C)c1-c1c(OC(=O)C(C)(C)C)n2n(c1=O)CCOCC2 [1.005]
- Post-emergence action, Set (rating) (Setaria [1]): 2
- Post-emergence action, Ave (rating) (Avena [2]): 1
- Post-emergence action, Lol (rating) (Lolium [3]): 2

SMILES: Cc1cc(C)c(C2C(=O)N3CCCCCN3C2=O)c(C)c1 [compound A, reference compound]
- Pre-emergence action, Ave (rating) (Avena [4]): 7
- Pre-emergence action, Bra (rating) (Brachiaria [5]): 3
- Pre-emergence action, Dig (rating) (Digitaria [6]): 7
- Pre-emergence action, Alo (rating) (Alopecurus [7]): 5
- Post-emergence action, Alo (rating) (Alopecurus [8]): 5
- Pre-emergence action, Pan (rating) (Panicum [9]): 7
- Pre-emergence action, Set (rating) (Setaria [10]): 3
- Pre-emergence action, Ech (rating) (Echinocloa [11]): 5
- Pre-emergence action, Lol (rating) (Lolium [12]): 4
- Pre-emergence action, Sor (rating) (Sorghum [13]): 6
- Post-emergence action, Pan (rating) (Panicum [14]): 2
- Post-emergence action, Set (rating) (Setaria [15]): 4
- Post-emergence action, Ave (rating) (Avena [16]): 2
- Post-emergence action, Bra (rating) (Brachiaria [17]): 2
- Post-emergence action, Dig (rating) (Digitaria [18]): 5
- Post-emergence action, Ech (rating) (Echinocloa [19]): 1
- Post-emergence action, Lol (rating) (Lolium [20]): 5
- Post-emergence action, Sor (rating) (Sorghum [21]): 3

SMILES: CCc1cc(C)cc(C)c1-c1c(O)n2n(c1=O)CCOCC2 [1.004]
- Pre-emergence action, Set (rating) (Setaria [22]): 2
- Pre-emergence action, Ave (rating) (Avena [23]): 1
- Pre-emergence action, Lol (rating) (Lolium [24]): 1

SMILES: C#Cc1cc(C)cc(C)c1-c1c(OC(=O)C(C)(C)C)n2n(c1=O)CCOCC2 [1.016]
- Post-emergence action, Set (rating) (Setaria [1]): 2
- Post-emergence action, Ave (rating) (Avena [2]): 3
- Post-emergence action, Lol (rating) (Lolium [3]): 2

SMILES: CCc1cc(C)cc(CC)c1-c1c(OC(=O)C(C)(C)C)n2n(c1=O)CCOCC2 [1.008]
- Pre-emergence action, Set (rating) (Setaria [22]): 1
- Pre-emergence action, Ave (rating) (Avena [23]): 1
- Pre-emergence action, Lol (rating) (Lolium [24]): 1
